Test results as given in PMC7175181 (Biomolecules, 2020).
Entries after “also recorded” stand apart in the source; their conditions may differ. No end group written: not given here.

Key:
ACE [1] = molecular target: T1, ACE (Homo sapiens, UniProt P12821); test: In vitro ACE inhibition assay (ACE Kit-WST); assay type: biochemical; conditions: for IC50: ACE Kit-WST, 1 h at 37 °C, absorbance 450 nm, non-linear regression, mean of three independent experiments (n = 3); for Comparison of IC50 (ACE inhibition): n = 3, one-way ANOVA and Sidak's multiple-comparisons test
T1 construct: purchased Dojindo Laboratories ACE Kit-WST
T1 sequence (P12821 30-1306, species assumed): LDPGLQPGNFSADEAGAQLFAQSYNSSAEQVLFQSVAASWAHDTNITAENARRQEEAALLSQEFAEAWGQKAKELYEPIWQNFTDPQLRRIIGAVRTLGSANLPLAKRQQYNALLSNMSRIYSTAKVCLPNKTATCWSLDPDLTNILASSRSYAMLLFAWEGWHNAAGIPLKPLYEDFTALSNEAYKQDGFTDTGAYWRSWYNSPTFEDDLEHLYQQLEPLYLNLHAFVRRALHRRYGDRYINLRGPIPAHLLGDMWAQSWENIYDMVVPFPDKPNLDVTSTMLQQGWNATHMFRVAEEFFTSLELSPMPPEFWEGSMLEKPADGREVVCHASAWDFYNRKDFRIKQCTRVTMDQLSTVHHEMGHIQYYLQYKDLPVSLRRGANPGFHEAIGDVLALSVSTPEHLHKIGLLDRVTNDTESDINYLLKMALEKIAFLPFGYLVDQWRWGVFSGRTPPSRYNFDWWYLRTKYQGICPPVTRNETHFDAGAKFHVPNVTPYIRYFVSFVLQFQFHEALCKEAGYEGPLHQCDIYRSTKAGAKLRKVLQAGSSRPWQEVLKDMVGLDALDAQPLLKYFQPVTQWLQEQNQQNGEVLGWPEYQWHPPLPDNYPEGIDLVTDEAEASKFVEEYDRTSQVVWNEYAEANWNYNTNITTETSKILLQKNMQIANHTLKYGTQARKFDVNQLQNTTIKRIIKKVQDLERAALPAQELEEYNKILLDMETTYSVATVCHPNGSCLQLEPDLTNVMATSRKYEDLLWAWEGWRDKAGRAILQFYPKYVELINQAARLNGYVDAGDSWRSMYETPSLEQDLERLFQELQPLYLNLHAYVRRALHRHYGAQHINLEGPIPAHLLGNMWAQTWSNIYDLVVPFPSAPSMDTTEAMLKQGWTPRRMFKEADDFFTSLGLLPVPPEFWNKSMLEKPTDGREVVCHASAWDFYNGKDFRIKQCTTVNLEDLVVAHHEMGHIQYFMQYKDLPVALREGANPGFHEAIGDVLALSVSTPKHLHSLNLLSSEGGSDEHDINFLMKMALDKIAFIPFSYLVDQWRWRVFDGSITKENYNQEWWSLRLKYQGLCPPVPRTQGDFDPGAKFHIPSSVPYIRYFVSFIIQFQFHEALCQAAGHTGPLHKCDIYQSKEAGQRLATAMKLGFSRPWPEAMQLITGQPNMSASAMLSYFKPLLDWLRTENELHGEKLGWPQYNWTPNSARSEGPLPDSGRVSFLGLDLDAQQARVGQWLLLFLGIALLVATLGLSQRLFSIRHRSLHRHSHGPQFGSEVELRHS
Method: The inhibition of ACE was measured using the ACE Kit-WST (Dojindo Laboratories, Mashiki-machi, Japan). Custom synthesized hemorphin peptides ([…], […], YPWTQRF, and YPWTRRF) were purchased from New England Peptide (Gardner, MA, USA). Indicator working solution and enzyme working solution were prepared according to the manufacturer’s instructions. 10 µL of each dose of hemorphin was added to the wells of a 96-well microplate. 20 µL and 40 µL of deionized water were added in blank 1 and blank 2 wells. 20 µL of the substrate buffer was added to each well, followed by 20 µL of enzyme working solution in all of the sample wells and blank 1. The plate was incubated for 1 h at 37 °C. After the incubation period, 200 µL of indicator working solution was added to each well and then incubated at room temperature for 5 min. After incubation, plate absorbance was measured at 450 nm using Glomax Discover Microplate Reader (Promega, Madison, WI, USA). The inhibition of ACE was calculated using the following equation: Inhibition rate (%) = (Ablank1 − Asample)/(Ablank1 − Ablank2) × 100.
From the obtained data, IC50 was calculated using Prism 7 (GraphPad, San Diego, CA, USA) from a non-linear regression plot of ACE inhibition (%) against peptide concentration (µM).
Nonlinear regression was used to generate dose–response curves in Prism 7 (GraphPad, San Diego, CA, USA). The observed data are presented as mean ± SEM (Standard Error of the Mean). One-way or two-way analysis of variance (ANOVA), as appropriate, were carried out and a comparison of means was performed by Sidak’s multiple-comparisons test to estimate the statistical significance between the different treatments.

[2] = ref [15],[16]; cited from earlier work
Description: Hemorphins are endogenous peptides that are produced from beta hemoglobin. Hemorphins of various lengths (4–10 amino acids) have been identified so far. These peptides are mainly produced in the plasma, brain, cerebrospinal fluid, and spinal cord. The decapeptide LVV-hemorphin-7 ([…]) is considered to be the longest form of hemorphin and is found abundantly in the mammalian nervous system. […] Numerous studies have reported various biological activities of hemor ...

[3] = cited from earlier work
Description: Angiotensin-I converting enzyme (ACE) is a zinc metallopeptidase that is found in many tissues and biological fluids and it is an important player in regulating RAAS and kallikrein-kinnin system (KKS). There are two main mechanisms by which ACE causes hypertension. Firstly, ACE cleaves two amino acids from the decapeptide angiotensin I to produce the octapeptide angiotensin II, which is a strong vasoconstrictor. Secondly, ACE is involved in the degradation of bradykinnin, a potent vasodilator [5, 6]. ACE is associated with hypertension and remains an important target for the discovery of an ...

ACE [4] = conditions: ref [53]; cited from earlier work
ACE [5] = molecular target: T1, ACE; set-up: method as in 2 sources, one per row (each row's own in cited_ref): ref [54] = [54]; PMID 7945362; doi:10.1006/bbrc.1994.2447; 54. Zhao Q. Sannier F. Garreau I. Guillochon D. Piot J.M. Inhibition and inhibition kinetics of angiotensin converting enzyme activity by hemorphins, isolated from a peptic bovine hemoglobin hydrolysa ||| ref [24] = [24]; PMID 12182948; doi:10.1016/S0196-9781(02)00083-9; 24. Fruitier-Arnaudin I. Cohen M. Bordenave S. Sannier F. Piot J.M. Comparative effects of angiotensin IV and two hemorphins on angiotensin-converting enzyme activity Peptides 2002 23 1465 1470 10.101; conditions: ref [54]; cited from earlier work
Method: An ACE inhibition assay was performed to evaluate the IC50 of these peptides to investigate this further.

Q: For `CC(C)C[C@H](N)C(=O)N[C@H](C(=O)N[C@H](C(=O)N[C@@H](Cc1ccc(O)cc1)C(=O)N1CCC[C@H]1C(=O)N[C@@H](Cc1c[nH]c2ccccc12)C(=O)N[C@H](C(=O)N[C@@H](CCC(N)=O)C(=O)N[C@@H](CCCNC(=N)N)C(=O)N[C@@H](Cc1ccccc1)C(=O)O)[C@@H](C)O)C(C)C)C(C)C`, which IC50 (ACE [1]) is on record?
A: 12.6 µM

Q: And the “Comparison of IC50 (ACE inhibition)” value (ACE [1])?
A: significantly lower than that of YPWTQRF (25.894 µM)

Q: And the “Stability compared to other hemorphins” value [2]?
A: most stable

Q: With `CC(C)C[C@H](N)C(=O)N[C@H](C(=O)N[C@H](C(=O)N[C@@H](Cc1ccc(O)cc1)C(=O)N1CCC[C@H]1C(=O)N[C@@H](Cc1c[nH]c2ccccc12)C(=O)N[C@H](C(=O)N[C@@H](CCCNC(=N)N)C(=O)N[C@@H](CCCNC(=N)N)C(=O)N[C@@H](Cc1ccccc1)C(=O)O)[C@@H](C)O)C(C)C)C(C)C` as the molecule, how does the IC50 (ACE [1]) read?
A: 6.6 µM

Q: What about the “Comparison of IC50 (ACE inhibition)” value (ACE [1]) of the same molecule?
A: lower than YPWTRRF (9.310 µM); also recorded: the difference between LVVYPWTRRF and YPWTRRF was not significant

Q: What about the “Comparison of IC50 (ACE inhibition)” value (ACE [1]; listed as camel LVV-hemorphin-7) of the same molecule?
A: significantly less than non-camel LVV-hemorphin-7 (12.649 µM) (p < 0.05, n = 3)

Q: With `C[C@H](CS)C(=O)N1CCC[C@H]1C(=O)O` [captopril] as the molecule, how does the Side effects [3] read?
A: cough, kidney problems, angioedema, and allergic reactions

Q: With `C[C@H](N[C@@H](CCc1ccccc1)C(=O)O)C(=O)N1CCC[C@H]1C(=O)O` [enalaprilat] as the molecule, how does the “Affinity for ACE compared to lisinopril” value (ACE [4]) read?
A: lower affinity when compared to lisinopril

Q: With VVYPWTQRF as the molecule, how does the “ACE inhibitory activity compared to other hemorphins” value (ACE [5]) read?
A: the removal of the N-terminus leucine significantly decreased the ACE inhibition activity of VVYPWTQRF in comparison to LVVYPWTQRF

Q: For YPWTQRF [YPWTQRF], which IC50 (ACE [1]) is on record?
A: 25.9 µM

Q: With YPWTRRF [YPWTRRF] as the molecule, how does the IC50 (ACE [1]) read?
A: 9.31 µM

Q: And the “Comparison of IC50 (ACE inhibition)” value (ACE [1])?
A: significantly lower IC50

Q: And the “Comparison of IC50 (ACE inhibition)” value (ACE [1]; listed as camel hemorphin-7)?
A: significantly lower than the non-camel hemorphin-7 (25.894 µM) (p < 0.001, n = 3)
